The record followed here is article PMC2978156 (Neuron, 2010).

Format in all cases: biochemical
The target in assay [1] is T1, VGLUT2 (Rattus norvegicus, UniProt Q9JI12).
T1 sequence (Q9JI12 1-582): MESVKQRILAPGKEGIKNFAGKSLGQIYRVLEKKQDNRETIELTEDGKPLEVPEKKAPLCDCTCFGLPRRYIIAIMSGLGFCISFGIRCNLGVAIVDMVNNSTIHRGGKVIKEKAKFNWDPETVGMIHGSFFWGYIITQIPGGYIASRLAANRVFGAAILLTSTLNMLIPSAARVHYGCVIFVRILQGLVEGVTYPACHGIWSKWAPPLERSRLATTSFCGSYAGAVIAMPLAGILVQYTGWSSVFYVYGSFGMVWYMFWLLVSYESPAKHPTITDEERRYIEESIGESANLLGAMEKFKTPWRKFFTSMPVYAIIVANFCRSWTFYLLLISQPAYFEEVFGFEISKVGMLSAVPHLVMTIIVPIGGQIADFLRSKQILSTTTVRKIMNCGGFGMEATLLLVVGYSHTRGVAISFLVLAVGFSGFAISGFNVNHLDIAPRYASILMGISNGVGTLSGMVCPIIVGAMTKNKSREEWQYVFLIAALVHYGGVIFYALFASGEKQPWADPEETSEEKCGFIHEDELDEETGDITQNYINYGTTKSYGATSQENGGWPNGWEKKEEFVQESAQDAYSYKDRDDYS
As to the kind of experiment: Val-evoked [3H]L-glutamate uptake by proteoliposomes, […] min.

The target of assay [2] is T2, VGAT (Rattus norvegicus, UniProt O35458).
T2 sequence (O35458 1-525): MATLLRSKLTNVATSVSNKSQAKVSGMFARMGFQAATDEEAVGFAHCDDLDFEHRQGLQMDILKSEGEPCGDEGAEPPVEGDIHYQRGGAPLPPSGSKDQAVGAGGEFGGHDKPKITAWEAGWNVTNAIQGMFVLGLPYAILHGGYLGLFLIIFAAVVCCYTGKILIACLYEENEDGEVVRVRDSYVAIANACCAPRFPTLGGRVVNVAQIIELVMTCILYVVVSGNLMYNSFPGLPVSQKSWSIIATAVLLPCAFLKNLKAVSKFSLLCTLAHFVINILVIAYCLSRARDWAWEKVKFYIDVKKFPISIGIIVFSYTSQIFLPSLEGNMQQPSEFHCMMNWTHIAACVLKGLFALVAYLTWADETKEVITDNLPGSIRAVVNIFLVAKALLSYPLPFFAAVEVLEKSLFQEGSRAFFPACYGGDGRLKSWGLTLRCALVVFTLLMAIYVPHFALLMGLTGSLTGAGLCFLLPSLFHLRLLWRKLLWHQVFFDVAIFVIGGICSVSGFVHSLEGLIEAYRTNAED
In words: GABA uptake by proteoliposomes.

The target of assay [3] is VMAT2 (Rattus norvegicus, UniProt Q01827). As to the kind of experiment: pH-driven [3H]serotonin uptake by proteoliposomes. Particulars: 10 mM Cl-, 10 uM serotonin, pH 7.0 outside; inactive.
Chain of VMAT2 (Q01827 whole entry): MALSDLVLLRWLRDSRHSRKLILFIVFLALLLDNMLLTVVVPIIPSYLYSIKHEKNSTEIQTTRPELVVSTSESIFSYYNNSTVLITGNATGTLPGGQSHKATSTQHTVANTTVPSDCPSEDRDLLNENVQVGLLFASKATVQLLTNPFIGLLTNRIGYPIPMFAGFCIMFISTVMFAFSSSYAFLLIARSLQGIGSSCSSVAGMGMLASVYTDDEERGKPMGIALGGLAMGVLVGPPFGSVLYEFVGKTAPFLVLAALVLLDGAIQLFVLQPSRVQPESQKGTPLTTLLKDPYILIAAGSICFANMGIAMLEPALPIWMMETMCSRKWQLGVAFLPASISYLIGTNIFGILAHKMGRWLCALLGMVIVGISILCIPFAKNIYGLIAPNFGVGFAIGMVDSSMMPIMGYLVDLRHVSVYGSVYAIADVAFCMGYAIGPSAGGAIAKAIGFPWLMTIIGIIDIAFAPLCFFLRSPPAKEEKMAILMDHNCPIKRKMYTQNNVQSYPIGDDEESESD
Assay [4] has as its target T3, VNUT (Homo sapiens, UniProt Q9BYT1).
T3 sequence (Q9BYT1 1-436): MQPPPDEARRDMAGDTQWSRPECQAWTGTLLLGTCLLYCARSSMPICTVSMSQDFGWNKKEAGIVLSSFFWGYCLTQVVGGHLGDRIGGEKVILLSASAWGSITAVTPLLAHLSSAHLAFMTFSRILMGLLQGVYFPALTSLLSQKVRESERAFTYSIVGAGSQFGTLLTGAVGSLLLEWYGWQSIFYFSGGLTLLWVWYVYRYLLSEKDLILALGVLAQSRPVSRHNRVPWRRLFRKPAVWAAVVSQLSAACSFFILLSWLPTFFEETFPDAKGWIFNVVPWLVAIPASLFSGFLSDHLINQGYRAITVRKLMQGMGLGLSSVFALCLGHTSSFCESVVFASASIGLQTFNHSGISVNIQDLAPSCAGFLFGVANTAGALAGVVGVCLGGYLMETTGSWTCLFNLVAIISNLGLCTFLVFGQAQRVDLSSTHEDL
In words: Val-evoked […]ATP uptake by proteoliposomes. Particulars: 10 mM Cl-, 0.1 mM ATP, pH 7.0, 27 C; prevented by high Cl-; reversible.

The target of assay [5] is T1, VGLUT2. As to the kind of experiment: Val-evoked [3H]L-glutamate uptake by proteoliposomes, […] min. As to conditions: 10 mM Cl-, 100 uM L-glutamate, pH 7.0, 27 C.
Assay [6] has as its target T1, VGLUT2. The description is as above. Particulars: 10 mM Cl-, pH 7.0, 27 C.

Take `CC(=O)CC(=O)O` [acetoacetate]: the IC50 – broadly, the concentration at which inhibition is half-maximal – was 200 µM in assay [1] and more than 5000 µM in assay [2]. Besides, the “pH-driven [3H]serotonin uptake by proteoliposomes” value in assay [3] was “partially purified VMAT2 was found to be entirely independent of Cl^− and acetoacetate”. For the same molecule, in assay [4], the dose-dependent inhibition result was “uptake of ATP by VNUT was similarly inhibited by acetoacetate”.

With `C[C@@H](O)CC(=O)O` [3-hydroxybutyrate], in assay [5], the dose-dependent inhibition result is “ketone bodies (acetoacetate and 3-hydroxybutyrate) inhibited glutamate transport”.

On to `CC(=O)C(=O)O` [pyruvate], for which the dose-dependent inhibition entry in assay [5] is listed as “pyruvate, an intermediate in the glycolytic pathway also inhibited glutamate transport”.

As for `Cc1cc(-c2ccc(/N=N/c3ccc4c(S(=O)(=O)O)cc(S(=O)(=O)O)c(N)c4c3O)c(C)c2)ccc1/N=N/c1ccc2c(S(=O)(=O)O)cc(S(=O)(=O)O)c(N)c2c1O` [Evans blue], the “Val-evoked [3H]L-glutamate uptake by proteoliposomes, 1 min” value in assay [6] was “sensitivity to Evans blue and diisothiocyanostilbene disulfonic acid (DIDS)”.
